This note sets out measurements from PMC12664080, “Tetrazole-containing naphthalene bis-sulfonamide Keap1-Nrf2 interaction inhibitors with unexpected binding modes” (Redox Biology, 2025).

Read-outs that look alike come from different tables or passages of the source.

Experiment [1] addresses T1, Keap1 Kelch domain (Homo sapiens, UniProt Q14145).
T1 construct: made in house
The experiment is described as follows: Fluorescence polarisation (FP) competition assay. The class given is binding. How it is done: The FP assays were carried out according to previously described methods [[23],[31], [32], [33], [34]]. […] Following incubation under slow agitation (30 min at rt in the absence of light), the plates were transferred to a PHERAstar microplate reader and the FP was recorded. All measurements were recorded in triplicate. The data were normalised to the control and then fitted to a standard four-parameter logistic function using the Origin Pro software.
(In general: Fluorescence polarisation rises when a labelled molecule tumbles more slowly, as on binding a larger partner.)

The subject of another experiment is NQO1. The experiment is described as follows: NQO1 induction assay in Hepa1c1c7 cells. Type of experiment: cell-based, mouse. How it is done: The method using Hepa1c1c7 cells has been described previously. Briefly, cells were seeded into 96-well plates (2 × 10^4 cells/200 μL per well) then incubated overnight at 37 °C. The cells were treated with compound (10 μM final concentration) or vehicle (final DMSO concentration 0.1 % DMSO) and incubated for a further 24 h or 48 h. The culture medium was aspirated and the cells treated with lysis buffer (50 μL per well, 0.1 % Tween 20 in 2 mM EDTA (pH 7.5)) then agitated for 15 min. Enzyme reaction mixture was added to each well (200 μL of 25 mM Tris buffer (pH 7.5) containing BSA (0.067 %), Tween20 (0.01 %), FAD (5 μM), G6P (1 mM), NADP (30 μM), G6P dehydrogenase (40 units), MTT (0.03 %), menadione (50 μM)) for 5 min then stop solution was applied (40 μL of 10 % SDS, final concentration 1.5 % SDS). Following brief agitation of the plate, the absorbance at 595 nm was measured. The background optical density was measured from wells containing tissue culture medium, lysis buffer, enzyme and stop solutions in the absence of Hepa1c1c7 cells. The change in background-corrected NQO1 activity (change in optical density) relative to the control was determined for each compound.

In experiment [2] the test system is Nrf2. The experiment is described as follows: Nrf2 luciferase reporter assay (MCF7 ARE-luciferase reporter cell line). To be noted: Homo sapiens, MCF7 cells. The class given is cell-based. Here is the method: The induction of luciferase activity in the stably transfected MCF7 ARE-luciferase reporter cell line was measured using an adaptation of a published procedure. […] The cells were treated with compound or vehicle control (1 % final DMSO concentration) and incubated for a further 24 h. The culture medium was aspirated and the cells were washed with 100 μL per well PBS. The cells were lysed using 75 μL per well lysis buffer (0.2 % Triton X-100 in 25 mM Tris pH 7.5) under gentle agitation at rt for 30 min. The samples were transferred to 500 μL Eppendorf tubes and centrifuged at 10000 g for 5 min at 4 °C. 50 μL of supernatant from each sample were transferred to a new 96 well plate. 50 uL of working reagent (100 mM Tris pH 8.0, 5 mM MgCl2, 100 μM coenzyme A, 80 μM luciferin, and 5 mM ATP) were added to each well and the luciferase activity was measured.
(In a reporter assay the amount or activity of a reporter protein is the signal.)

In experiment [3] the target is T1, Keap1 Kelch domain. The experiment is described as follows: Isothermal titration calorimetry (ITC). Type of experiment: binding. How it is done: The measurements were performed as described previously. The small molecule inhibitor at 500 μM was titrated over 30 injections against 50 μM protein in buffer containing 25 mM HEPES (pH 7.4), 200 mM NaCl and 5 % DMSO. ITC experiments were performed using a MicroCal PEAQ-ITC instrument (Malvern Instruments, UK) at 25 °C with a stirring speed of 750 rpm. The first injection volume was of 0.3 μL followed by 29 injections of 1.3 μL and a gap of 120 s between each injection. Data analyses were performed as previously described. Each small molecule ITC measurement was performed in duplicate and resultant values obtained were averaged after independent analysis.
Background: Isothermal titration calorimetry measures the heat released or taken up as one component is titrated into another.

Another experiment relates to Keap1-mCherry. The experiment is described as follows: Keap1-Glow Cellular Thermal Shift Assay (CETSA), U2OS cell lysates. Type of experiment: cell-based. To be noted: 10 μM, 1 h at 37 °C. Here is the method:
U2OS FRT/TO cells with doxycycline-inducible expression of Keap1-mCherry or mCherry were treated with 0.5 μg/mL of doxycycline for 72–96 h to induce the expression of the fluorescent proteins. Lysates of U2OS cells with doxycycline-inducible expression of Keap1-mCherry or mCherry were prepared by lysing in DPBS with EDTA-free protease inhibitor cocktail (PIC) using at least 22 strokes of the Dounce homogenizer. The lysates were cleared by centrifugation at 9600×g for 5 min at 22 °C and incubated with 10 μM compound 25 or vehicle (0.4 % DMSO) for 1 h at 37 °C [46]. The lysates were then heated for 3 min at the indicated range of temperatures (39 °C–72 °C, with 3 °C increments) using a thermal cycler, and the aggregated material was removed by a high-speed centrifugation at 17,000×g at 4 °C for 40 min or 15,000×g at 4 °C for 1 h. The soluble fractions were transferred to 96-well white opaque plates, and the fluorescence (580 nm excitation wavelength (20 nm excitation bandwidth), 635 nm emission wavelength (35 nm emission bandwidth)) was measured using a plate reader (TECAN Spark 10 M).

Experiment [4] deals with Nrf2. The experiment is described as follows: Immunoblotting of Nrf2 and HO-1 in Hepa1c1c7 cells. The class given is cell-based, mouse. The settings on record: 6-h incubation, 10 μM or 50 μM. How it is done:
Hepa1c1c7 cells (5 × 10^5 cells/well, n = 3) were seeded on six-well plates, and on the next day were treated with compound 25 (10 μM or 50 μM) or vehicle (0.1 % DMSO) for 6 h. Cells were washed twice in PBS, and lysed in 200 μL of SDS lysis buffer containing 2 % SDS, 62.5 mM Tris-HCl pH 6.8 and 10 % glycerol. The cell lysates were boiled for 3 min, sonicated for 25 s (25 %, 4 s on, 1 s off), supplemented with DTT up to 0.1 M and Bromophenol Blue, and snap-frozen. The lysates were thawed, and 20 μg of total protein was separated on a pre-cast NuPage gel under MOPS buffer, transferred onto nitrocellulose membrane and blotted with anti-Nrf2 (Cell Signaling Technology, clone D1Z9C, 1:1000 dilution), anti-HO1 (Abcam, ab13243, 1:2000 dilution) or anti-alpha tubulin (Abcam, clone EP1332Y, 1:5000 dilution) in 5 % milk in PBS with 0.1 % Tween, followed by appropriate secondary antibodies (LiCor BioSciences, 1:15000 dilutuon) and scanned using Odyssey CLx Imaging System.

T1 sequence (Q14145 322-609): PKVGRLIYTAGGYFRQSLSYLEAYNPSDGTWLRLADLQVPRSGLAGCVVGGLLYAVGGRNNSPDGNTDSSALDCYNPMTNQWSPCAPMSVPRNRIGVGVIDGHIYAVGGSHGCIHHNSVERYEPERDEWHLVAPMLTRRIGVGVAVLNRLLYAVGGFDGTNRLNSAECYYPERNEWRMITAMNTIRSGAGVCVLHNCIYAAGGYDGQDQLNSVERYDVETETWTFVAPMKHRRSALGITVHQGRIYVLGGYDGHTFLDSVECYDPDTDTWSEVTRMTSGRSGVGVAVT

With `COc1ccc(S(=O)(=O)N(CC(=O)O)c2ccc(N(Cc3nnn[nH]3)S(=O)(=O)c3ccc(OC)cc3)c3ccccc23)cc1` [Compound 25, N-(4-((N-((1H-tetrazol-5-yl)methyl)-4-methoxyphenyl)sulfonamido)naphthalen-1-yl)-N-((4-methoxyphenyl)sulfonyl)glycine], the IC50 at Keap1 Kelch domain [1] (200 nM Keap1 Kelch domain, 1 nM FITC-β-DEETGEF-OH) is 31 ± 2 nM. The “FP IC50 fold lower than the bis-acid 2” value at Keap1 Kelch domain [1] (vs 2) was about 2 fold. Moreover, at Keap1 Kelch domain [1] (vs 13), the “FP IC50 fold lower than the bis-tetrazole 13” value was about 2.5 fold. Moreover, in the experiment with NQO1 (48-h incubation), the “specific enzyme activity of NQO1” value was “increased”. Besides, the fold induction at 10 µM came to 2.01 ± 0.05 in the experiment with NQO1 (Mus musculus, Hepa-1c1c7, 10 μM) and 1.48 with Nrf2 [2] (10 μM, 24 h). Also, in the experiment with Nrf2 [2] (100 μM (highest test concentration), read-out: peak fold induction of luciferase activity), the fold induction at 100 µM is 5.66. Also, the Kd was under 1 nM on Keap1 Kelch domain [3] (25 °C, read-out: ITC Kd); at most 1 nM at Keap1 Kelch domain [3] (from ITC and MST data, read-out: Kd value for Keap1 Kelch domain (overall, lower limit of detection)). The “Target engagement in the cellular environment (CETSA)” value in the experiment with Keap1-mCherry is reported as “confirmed”. For the same compound, in the experiment with Nrf2 [4], the “protein levels of Nrf2” value is recorded as “increased”. In addition, the “protein levels of heme oxygenase 1 (HO-1)” value with Nrf2 [4] is “increased”.

For orientation: IC50 means the concentration needed to halve the response being measured. A high value points to a need for much substance. The term Kd denotes the concentration at which binding is half-saturated.
